Where “and” joins values, the source holds several entries; their conditions need not be identical. Equal values may be shown once. Blank lines part the entries; values can stand above or below the compound they belong to.
What was measured:
Aβ(1-40) [1] = molecular target: T1, Aβ(1-40) (Homo sapiens, UniProt P05067); assay: BASSR (Beta-Amyloid Self-Seeding Radioassay), inhibitors of self-seeded amyloid fibril growth; type: biochemical; details: 30 μM soluble Aβ(1-40) + 125I-labeled Aβ(1-40), pH 7.5, 37° C., 3 to 5 hours, filtration
T1 construct: Soluble Aβ(1-40) peptide (Bachem, Torrance, Calif.); purchased Bachem, Torrance, Calif
T1 sequence (P05067 672-711 limits assumed): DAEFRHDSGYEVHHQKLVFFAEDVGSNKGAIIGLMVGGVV
How it was run: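 Self-seeding growth of fibrils from 30 μM soluble human Aβ(1-40) plus ^125I-labeled Aβ(1-40) was run in 50 mM sodium phosphate pH 7.5, 100 mM NaCl, 1 M urea, with compound as serial 3-fold dilutions from 100 μM final, DMSO <1%. After 10 min on ice and 3 to 5 hours at 37° C., fibrils were filter-collected and radioactivity counted.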

Aβ(1-40) [2] = molecular target: T1, Aβ(1-40); assay: BASST (Beta-Amyloid Self-Seeding, ThioflavinT), inhibitors of self-seeded amyloid fibril growth; type: biochemical; details: 30 μM soluble Aβ(1-40), pH 7.5, 37° C., 3 to 5 hours, thioflavin T fluorescence
How it was run: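 Self-seeded soluble Aβ(1-40) at 30 μM was mixed on ice with compound (3-fold dilutions, top 100 μM final; DMSO <1%) in pH 7.5 phosphate buffer with 1 M urea. After 10 min on ice, mixtures were incubated 3 to 5 hours at 37° C. Fibril growth was read as thioflavin T fluorescence (ex 440/em 485).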

Aβ(1-42) = molecular target: T2, Aβ(1-42) (Homo sapiens, UniProt P05067); assay: BATYM Assay (Aβ(1-42) aggregation, Thioflavin T fluorescence); type: biochemical; details: Aβ 1-42 final concentration 100 μM, PBS pH 7.4, 37° C., 1 day, ThT fluorescence
T2 construct: Required Aβ(1-42)(California Peptide) was dried from its hexafluoroisopropanol (HFIP) stock solution; purchased California Peptide
T2 sequence (P05067 672-713 limits assumed): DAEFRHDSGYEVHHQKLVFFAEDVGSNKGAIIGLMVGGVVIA
How it was run: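 HFIP-dried Aβ(1-42), redissolved in DMSO/PBS pH 7.4 and filtered, was incubated at 100 μM final with compound (2% DMSO) for 1 day at 37° C. Aggregation read by ThT (30 μM, glycine-NaOH pH 8.5) fluorescence, ex 440/em 485 nm; inhibition corrected for compound blank, IC50 by curve fit, two experiments in triplicate.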

[3] = molecular target: T3, beta amyloid peptide Aβ(1-40) (Homo sapiens, UniProt P05067); assay: BAPA (Beta-Amyloid Peptide Aggregation), pH 6.0; type: biochemical; details: Aβ(1-40) 33 μM, pH 6.0, 2 to 4 hours at room temperature, filtration
T3 construct: 0.5 mg/mL AP (140) peptide in 20% HFIP+0.1 μL/assay radioiodinated ^125I Aβ(1-40)
T3 sequence (P05067 672-711 limits assumed): as the sequence (P05067 672-711 limits assumed) above
How it was run: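 HFIP-monomerised Aβ(1-40) with ^125I Aβ(1-40) tracer in 50 mM phosphate pH 6.0, DMSO <1%, incubated 2 to 4 h at room temperature. Aggregates collected by 0.2 μm filtration and counted by scintillation, background-corrected.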

Compound: CCCCCN(CCCCC)c1ccc(/C=C2\SC(=S)N(CCS(=O)(=O)NC(=O)c3ccc(F)cc3)C2=O)cc1 [Example 31, (Z) 2-[5-(4-Dipentylamino-benzylidene)-4-oxo-2-thioxo-thiazolidin-3-yl]-ethanesulfonic acid 4-fluoro-benzoylamide]
IC50 (Aβ(1-40) [1]): 9 µM
IC50 (Aβ(1-40) [2]): 0.3 µM
IC50 (Aβ(1-42)): 3.11 µM
IC50 [3]: > 100 µM
melting point: 195 to 196 °C

Compound: CCCCN(CCCC)c1ccc(/C=C2\SC(=S)N(Cc3cc(=O)c(O)co3)C2=O)cc1 [Example 33, (Z) 5-(4-Dibutylamino-benzylidene)-3-(5-hydroxy-4-oxo-4H-pyran-2-ylmethyl)-2-thioxo-thiazolidin-4-one]
IC50 (Aβ(1-40) [1]): > 100 µM
IC50 (Aβ(1-40) [2]): 2 µM
IC50 (Aβ(1-42)): 3.03 µM
IC50 [3]: > 60 µM
melting point: 226 to 227 °C

Compound: CCCC1CCN(c2ccc(/C=C3\SC(=S)N(Cc4cc(=O)c(O)co4)C3=O)cc2)CC1 [Example 34, (Z) 3-(5-Hydroxy-4-oxo-4H-pyran-2-ylmethyl)-5-[4-(4-propyl-piperidin-1-yl)-benzylidene]-2-thioxo-thiazolidin-4-one]
IC50 (Aβ(1-40) [1]): > 100 µM
IC50 (Aβ(1-40) [2]): 2 µM
IC50 (Aβ(1-42)): 2.38 µM
IC50 [3]: > 60 µM
melting point: 253 °C

Compound: CCCC1CCN(c2ccc(/C=C3\SC(=S)N(CC(=O)NS(=O)(=O)c4ccccc4)C3=O)cc2)CC1 [Example 36, (Z) N-(2-{4-Oxo-5-[4-(4-propyl-piperidin-1-yl)-benzylidene]-2-thioxo-thiazolidin-3-yl}-acetyl)benzenesulfonamide]
IC50 (Aβ(1-40) [1]): > 100 µM
IC50 (Aβ(1-40) [2]): 1 µM
IC50 (Aβ(1-42)): 3.3 µM
IC50 [3]: > 60 µM
melting point: 201 °C

Other lines, results leading:

IC50 (Aβ(1-40) [1]): 50 µM
IC50 (Aβ(1-40) [2]): 0.4 µM
IC50 (Aβ(1-42)): 3.83 µM
IC50 [3]: > 60 µM
melting point: 254 °C
Compound: CCCC1CCN(c2ccc(/C=C3\SC(=S)N(CC(=O)NS(C)(=O)=O)C3=O)cc2)CC1 [Example 37, (Z) N-(2-{4-Oxo-5-[4-(4-propyl-piperidin-1-yl)-benzylidene]-2-thioxo-thiazolidin-3-yl}-acetyl)methanesulfonamide]

IC50 (Aβ(1-40) [1]): 10 µM and 5 µM
IC50 (Aβ(1-40) [2]): 0.7 µM and 0.1 µM
IC50 (Aβ(1-42)): 2.54 µM
IC50 [3]: 66 µM
melting point: 220 to 221 °C
Compound: O=C(CN1C(=O)/C(=C/c2ccc(N3CC[C@@H]4CCCC[C@H]4C3)cc2)SC1=S)NS(=O)(=O)c1ccc(F)cc1 [Example 38, (Z) 4-Fluoro-N-(2-{5-[(4aS,8aR)-4-(octahydro-isoquinolin-2-yl)-benzylidene]-4-oxo-2-thioxo-thiazolidin-3-yl}-acetyl)-benzenesulfonamide]

IC50 (Aβ(1-40) [1]): > 100 µM and 21 µM
IC50 (Aβ(1-40) [2]): 1 µM and 0.1 µM
IC50 (Aβ(1-42)): 2.86 µM
IC50 [3]: 37 µM
melting point: 197 °C
Compound: CCCC1CCN(c2ccc(/C=C3\SC(=S)N(CC(=O)NS(=O)(=O)c4ccc(F)cc4)C3=O)cc2)CC1 [Example 39, (Z) 4-Fluoro-N-(2-{4-oxo-5-[4-(4-propyl-piperidin-1-yl)-benzylidene]-2-thioxo-thiazolidin-3-yl}-acetyl)-benzenesulfonamide]
